Patent publication US20180344855A1, “Stable Anti-inflammatory Solutions for Injection” (Omeros Corporation, priority 2011, published 2018)
Structures can show the parent of a compound that is named as a salt. Where two headings read alike, the source gives them in different places. Values belong to the molecule of their own block, whether it stands above or below them.

Columns and labels:
COX = conditions: non-selective COX assay; cited from earlier work
[1] = molecular target: human 5-HT1B and 5-HT1D receptors; conditions: range over human 5-HT1B and 5-HT1D receptors; cited from earlier work
5-HT1B/1D receptor = conditions: human saphenous vein; read-out: IC50 (functional agonist); cited from earlier work
[2] = molecular target: α1A- and α2A-adrenoceptors; conditions: range over α1A- and α2A-adrenoceptors; cited from earlier work
[3] = molecular target: non-human 5-HT1A, 5-HT1B and 5-HT1D receptors; conditions: range over non-human 5-HT1A; cited from earlier work
[4] = One-liter scale stability study with or without Na2 EDTA, N2 overlay or sparge (Example 8); assay type: physicochemical; conditions: over six months
[5] = Protocol: Thus, the final concentration of Na citrate was about 50 mM. Three cGMP registration lots of the formulation, each in three hundred liter volume, were manufactured and stored at temperatures of 5° C., 25° C., 30° C., or 40° C. for long-term stability evaluation. Aliquots were taken from each lot at intervals and analyzed for potency and presence of related substances. In addition, the lots were visually inspected for appearance and the pH was also monitored.
Related substances (RS) were detected by HPLC.

[6] = Formulation screening: storage stability, related substances by gradient HPLC (Examples 2-5); assay type: physicochemical; conditions: in the presence of 0.05% w/v Na2 EDTA versus none; up to thirty days
Protocol: The stability of the active pharmaceutical ingredients was tested in acetate or citrate buffers. […] Chromatographic conditions for the related substances assay were as follows: (a) Detection wave length, UV 215 nm; (b) Column, Zorbax SB-C8, 5 μm, 4.6×250 mm; (c) Column temp, 30±1° C.; (d) Sample temp, Ambient; (e) Flow rate, 1.2 mL/min; (f) Injection volume, 20 μL; (g) Run Time, 30 minutes.
F6 included 50 mM Na acetate buffer, pH 5.5; F7 included 50 mM Na citrate buffer, pH 5.5. […] Citric acid also has the ability to chelate divalent cations and can prevent oxidation, thus acting both as a buffering agent and an antioxidant.
The Stability of the Active Pharmaceutical Ingredients was Tested in Buffers with varying pH values. […] Data not shown. Both formulations included 50 mM Na citrate buffer. F8 pH was 6.5 and F9 pH was 5.5.
The stability of the active, pharmaceutical ingredients in liquid formulation was tested in the presence of N2 overlay and light protection. Two formulations, F10 and F11, were prepared and stored for up to 28 days under the conditions shown in FIG. 4A, i.e., with or without N2 overlay and light protection. […] F10 was prepared under protection from light and N2 overlay post-compounding and pre-filling of formulation into vials, while F11 was not.
The effect of antioxidants on stability of the active pharmaceutical ingredients in liquid formulation was tested. […]

Structure (SMILES): CC(C(=O)O)c1cccc(C(=O)c2ccccc2)c1 (stereo not drawn) [Ketoprofen, ketoprofen]
IC50 (COX): 4 to 8 nM

Structure (SMILES): Cc1cc(C(C)(C)C)c(O)c(C)c1CC1=NCCN1 [oxymetazoline]
Ki [1]: 0.3 to 0.4 nM | IC50 (5-HT1B/1D receptor): 30 nM | Ki [2]: 3 to 6 nM | IC50 [3]: 3 to 26 nM

related substances of the named API [4]: less than 5% | stability in the tested formulation [5]: stable | RS presence ([5]; 4° C.): present sporadically | chemical stability [6]: improved
Structure (SMILES): CN(C)CCC=C1c2ccccc2CCc2ccccc21 [amitriptyline HCl]
percentage of RS over time ([5]; 25° C. and 30° C.): increased over the first three months, and then was stable for up to two years | percentage of RS over time ([5]; 40° C.): increased during the first month and then stabilized

related substances of the named API [4]: less than 1% | total RS % ([5]; stored at 30° C. and 40° C.): increased significantly | total RS % ([5]; two years at 5° C.): 0.00% | total RS % ([5]; two years at 25° C.): about 0.15%
Structure (SMILES): Cc1cc(C(C)(C)C)c(O)c(C)c1CC1=NCCN1 [Oxymetazoline HCl, oxymetazoline HCl]
